Reference: patent publication US9546401B2, “Assays and methods for selecting a treatment regimen for a subject with depression” (The General Hospital Corporation, priority 2011, dated 2017)
Where two headings read alike, the source gives them in different places.

Assays:
[1] = test system: SSRI-resistant outpatients with major depressive disorder (MDD);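 for Cardiovascular side effects, Frequency: adverse events recorded at every visit with the SAFTEE-SI in a 60-day double-blind sequential parallel trial of two 30-day phases, visits every 10 days, placebo as comparator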;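 for adverse side effect when administered with an SSRI: adverse events recorded at every visit with the SAFTEE-SI in a 60-day double-blind sequential parallel trial of two 30-day phases, visits every 10 days, placebo as comparator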
Source text: Using the sequential parallel design […] For those randomly assigned to the placebo/placebo sequence, both responders and non-responders to placebo during the first phase (n=25) remain on placebo during the second phase. […] Data from the previous double-blind, placebo-controlled study (Trial 1) can be pooled into the instant study (Trial 2) to provide a more accurate estimate of the placebo effect size, with a weighted average from the two Phases 1 (one from Trial 1 and one from Trial 2) and two Phases 2 (one from Trial 1 and one from Trial 2).
The primary efficacy measure can include the change in 17-item Hamilton Rating Scale for Depression (HAM-D-17) score. […] A remission is, for example, defined as a HAM-D-17 score less than 8 at endpoint. Secondary measures of efficacy can include change in CGI-severity, with “clinical response defined” as CGI-S of 1 or 2 at endpoint. Patients with a CGI-I score greater than 5 at any post baseline visit or a 50 percent or greater worsening of depressive symptoms from baseline to that visit are discontinued from the study. Subjects are also discontinued from the study with any emergence of suicidality, homicidality, mania, or psychosis. Additional exemplary instruments that can be administered according to the study schedule include the following: • (1) Structured Clinical Interview for DSM-IV: The SCID-I/P, administered by the clinician, proceeds by modules to diagnose the different Axis I disorders. Questions are asked exactly as written, and each is based on the individual criteria from DSM-IV. Answers are generally rated on a scale of 1-3 (1=doubtful, 2=probable, 3=definite), and, based on the number of positive answers, a diagnosis is determined by a clinician. While the entire SCID-I/P is administered at screen, the mood module is administered at each follow up visit. • (2) The MGH Antidepressant Treatment History Questionnaire (MGH-ATR): The MGH-ATR provides specific criteria for the adequate dose and adequate length of a trial for it to be considered a failure, thus allowing clinicians to systematically collect data aimed at assessing the degree of treatment-resistance of the current major depressive episode. • (3) The 28-item Hamilton Depression Scale (HAM-D-28): This version allows scoring of the HAM-D-17, 21-, 25-, and 28-item scales. This instrument is completed by the clinician by using a structured interview and defined anchor points, and aims to quantify the degree of depression over the past 7 days. The HAM-D is the most widely studied instrument for depression, and its reliability and validity are high. • (4) Clinical Global Impressions—Severity and Improvement (CGI-S, CGI-I): These two instruments are scored 1-7 by the clinician based on assessment of the patient's clinical status. They measure, based on history and scores on other instruments: a) Depressive severity (CGI-S) and b) Clinical Improvement (CGI-I). […] Safety Measurements
Data are entered and error-checked at each clinical site involved in the study. Study staff and subjects may have the option to enter self-evaluations into the system directly using DatStat Illume™. The process of data entry is supervised by the DCRP staff. Once the data set is entered and checked, analyses are conducted. Both a completer analysis of all patients finishing the trial and an intent-to-treat analysis examining all patients enrolled into the trial are used to define the severity of depression at endpoint. Examination of both study completers and all patients randomized can provide the broadest assessment of the effects of treatment in trials of such kind. The data from Trial 2 can be pooled with those from Trial 1 with the sequential parallel comparison design, to provide an estimate of the placebo response based on a larger sample size. […] Let p1, q1 be the response rates to the first administration of drug and placebo respectively and let p2, q2 be the responses rates to the second treatment.

[2] = test system: SSRI-resistant outpatients with major depressive disorder (MDD); settings: for Cardiovascular side effects, NNH / Gastrointestinal side effects, NNH / Infectious side effects, NNH / Miscellaneous side effects, NNH / Psychological side effects, NNH / Sexual side effects, NNH / Sleep side effects, NNH / Somatic side effects, NNH: versus placebo;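 for Cardiovascular side effects, Frequency: adverse events recorded at every visit with the SAFTEE-SI in a 60-day double-blind sequential parallel trial of two 30-day phases, visits every 10 days, placebo as comparator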;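 for adverse side effect when administered with an SSRI: adverse events recorded at every visit with the SAFTEE-SI in a 60-day double-blind sequential parallel trial of two 30-day phases, visits every 10 days, placebo as comparator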
Source text: The study involved the enrollment of a total of 148 patients with MDD over the course of 12 months across 10 medical centers or hospitals in the United States. […] In accordance with the sequential parallel design [51], the 60-day, double-blind treatment was divided into two phases of 30 days each, with assessments performed every 10 days.

[3] = Pooled Phase 1 and 2, 7.5 mg/day + SSRI

In the case of CN1c2c(nc(N)[nH]c2=O)NC[C@@H]1CNc1ccc(C(=O)N[C@@H](CCC(=O)O)C(=O)O)cc1 [6(S)-5-MTHF, 6(S)-5-methyltetrahydrofolate], the “efficacy as an adjunct to the SSRIs” value ([1]; 7.5 mg/day) is reported as “not effective”, the “CGI-S Mean score reduction” value ([1]; Phase 1, 7.5 mg/day + SSRI) is reported as −0.5 and the “HDRS-17 % Remission” value ([1]; Phase 1, 7.5 mg/day + SSRI) is reported as 11.1%. For the same compound, the “HDRS-17 % Response” value ([1]; Phase 1, 7.5 mg/day + SSRI) was 19.4%, the “HDRS-17 Mean score reduction” value ([1]; Phase 1, 7.5 mg/day + SSRI) was −4.3 and the “QIDS-SR % Remission” value ([1]; Phase 1, 7.5 mg/day + SSRI) was 0.0%. For the same compound, the “QIDS-SR % Response” value ([1]; Phase 1, 7.5 mg/day + SSRI) was 25.0%, the “QIDS-SR Mean score reduction” value ([1]; Phase 1, 7.5 mg/day + SSRI) was −4.6 and the “CGI-S Mean score reduction” value ([1]; Phase 2, 7.5 mg/day + SSRI) was −0.5. For the same compound, the “HDRS-17 % Remission” value ([1]; Phase 2, 7.5 mg/day + SSRI) was 14.2%, the “HDRS-17 % Response” value ([1]; Phase 2, 7.5 mg/day + SSRI) was 17.1% and the “HDRS-17 Mean score reduction” value ([1]; Phase 2, 7.5 mg/day + SSRI) was −3.1. For the same compound, the “QIDS-SR % Remission” value ([1]; Phase 2, 7.5 mg/day + SSRI) was 8.5%, the “QIDS-SR % Response” value ([1]; Phase 2, 7.5 mg/day + SSRI) was 8.5% and the “QIDS-SR Mean score reduction” value ([1]; Phase 2, 7.5 mg/day + SSRI) was −1.9. The “CGI-S Mean score reduction” value [1, 3] was −0.53, the “HDRS-17 % Remission” value [1, 3] was 12.7% and the “HDRS-17 % Response” value [1, 3] was 18.3%. For the same compound, the “HDRS-17 Mean score reduction” value [1, 3] was −3.70, the “QIDS-SR % Remission” value [1, 3] was 4.3% and the “QIDS-SR % Response” value [1, 3] was 16.8%. The “QIDS-SR Mean score reduction” value [1, 3] was −3.25, the “increase in response and remission rate versus placebo with the SSRIs” value ([1]; Trial 1, 15 mg/day in second phase) was “at least 2 fold” and the “response and remission rate” value ([1]; Trial 1, drug/drug sequence, dose increased to 15 mg/day in second phase, placebo 9%, p=0.1) was 24%. The “adverse side effect when administered with an SSRI” value ([2]; Trial 1) was “does not appear to cause any adverse side effect”, the “Cardiovascular side effects, Frequency” value ([2]; Trial 1, 7.5 mg + SSRI, n = 94) was 0 and the “Cardiovascular side effects, Frequency (%)” value ([2]; Trial 1, 7.5 mg + SSRI, n = 94) was “(0%)”. The “Gastrointestinal side effects, Frequency” value ([2]; Trial 1, 7.5 mg + SSRI, n = 94) was 9, the “Gastrointestinal side effects, Frequency (%)” value ([2]; Trial 1, 7.5 mg + SSRI, n = 94) was “(9.6%)” and the “Infectious side effects, Frequency” value ([2]; Trial 1, 7.5 mg + SSRI, n = 94) was 6. For the same compound, the “Infectious side effects, Frequency (%)” value ([2]; Trial 1, 7.5 mg + SSRI, n = 94) was “(6.4%)”, the “Miscellaneous side effects, Frequency” value ([2]; Trial 1, 7.5 mg + SSRI, n = 94) was 1 and the “Miscellaneous side effects, Frequency (%)” value ([2]; Trial 1, 7.5 mg + SSRI, n = 94) was “(1.1%)”. The “Psychological side effects, Frequency” value ([2]; Trial 1, 7.5 mg + SSRI, n = 94) was 2, the “Psychological side effects, Frequency (%)” value ([2]; Trial 1, 7.5 mg + SSRI, n = 94) was “(2.1%)” and the “Sexual side effects, Frequency” value ([2]; Trial 1, 7.5 mg + SSRI, n = 94) was 0. For the same compound, the “Sexual side effects, Frequency (%)” value ([2]; Trial 1, 7.5 mg + SSRI, n = 94) was “(0%)”, the “Sleep side effects, Frequency” value ([2]; Trial 1, 7.5 mg + SSRI, n = 94) was 3 and the “Sleep side effects, Frequency (%)” value ([2]; Trial 1, 7.5 mg + SSRI, n = 94) was “(3.2%)”. For the same compound, the “Somatic side effects, Frequency” value ([2]; Trial 1, 7.5 mg + SSRI, n = 94) was 9, the “Somatic side effects, Frequency (%)” value ([2]; Trial 1, 7.5 mg + SSRI, n = 94) was “(9.6%)” and the “Cardiovascular side effects, NNH” value ([2]; Trial 1, 7.5 mg + SSRI) was “<placebo”. The “Gastrointestinal side effects, NNH” value ([2]; Trial 1, 7.5 mg + SSRI) was “<placebo”, the “Infectious side effects, NNH” value ([2]; Trial 1, 7.5 mg + SSRI) was “<placebo” and the “Miscellaneous side effects, NNH” value ([2]; Trial 1, 7.5 mg + SSRI) was “<placebo”. For the same compound, the “Psychological side effects, NNH” value ([2]; Trial 1, 7.5 mg + SSRI) was “<placebo”, the “Sexual side effects, NNH” value ([2]; Trial 1, 7.5 mg + SSRI) was “=placebo” and the “Sleep side effects, NNH” value ([2]; Trial 1, 7.5 mg + SSRI) was “<placebo”. The “Somatic side effects, NNH” value ([2]; Trial 1, 7.5 mg + SSRI) was “<placebo”, the “Cardiovascular side effects, Frequency” value ([2]; Trial 1, 15 mg + SSRI, n = 30) was 2 and the “Cardiovascular side effects, Frequency (%)” value ([2]; Trial 1, 15 mg + SSRI, n = 30) was “(6.7%)”. For the same compound, the “Gastrointestinal side effects, Frequency” value ([2]; Trial 1, 15 mg + SSRI, n = 30) was 3, the “Gastrointestinal side effects, Frequency (%)” value ([2]; Trial 1, 15 mg + SSRI, n = 30) was “(10.0%)” and the “Infectious side effects, Frequency” value ([2]; Trial 1, 15 mg + SSRI, n = 30) was 2. For the same compound, the “Infectious side effects, Frequency (%)” value ([2]; Trial 1, 15 mg + SSRI, n = 30) was “(6.7%)”, the “Miscellaneous side effects, Frequency” value ([2]; Trial 1, 15 mg + SSRI, n = 30) was 2 and the “Miscellaneous side effects, Frequency (%)” value ([2]; Trial 1, 15 mg + SSRI, n = 30) was “(6.7%)”. The “Psychological side effects, Frequency” value ([2]; Trial 1, 15 mg + SSRI, n = 30) was 2, the “Psychological side effects, Frequency (%)” value ([2]; Trial 1, 15 mg + SSRI, n = 30) was “(6.7%)” and the “Sexual side effects, Frequency” value ([2]; Trial 1, 15 mg + SSRI, n = 30) was 0. The “Sexual side effects, Frequency (%)” value ([2]; Trial 1, 15 mg + SSRI, n = 30) was “(0%)”, the “Sleep side effects, Frequency” value ([2]; Trial 1, 15 mg + SSRI, n = 30) was 2 and the “Sleep side effects, Frequency (%)” value ([2]; Trial 1, 15 mg + SSRI, n = 30) was “(6.7%)”. The “Somatic side effects, Frequency” value ([2]; Trial 1, 15 mg + SSRI, n = 30) was 3, the “Somatic side effects, Frequency (%)” value ([2]; Trial 1, 15 mg + SSRI, n = 30) was “(10.0%)” and the “Cardiovascular side effects, NNH” value ([2]; Trial 1, 15 mg + SSRI) was “<placebo”. For the same compound, the “Gastrointestinal side effects, NNH” value ([2]; Trial 1, 15 mg + SSRI) was “<placebo”, the “Infectious side effects, NNH” value ([2]; Trial 1, 15 mg + SSRI) was “<placebo” and the “Miscellaneous side effects, NNH” value ([2]; Trial 1, 15 mg + SSRI) was “<placebo”. The “Psychological side effects, NNH” value ([2]; Trial 1, 15 mg + SSRI) was “<placebo”, the “Sexual side effects, NNH” value ([2]; Trial 1, 15 mg + SSRI) was “=placebo” and the “Sleep side effects, NNH” value ([2]; Trial 1, 15 mg + SSRI) was “<placebo”. For the same compound, the “Somatic side effects, NNH” value ([2]; Trial 1, 15 mg + SSRI) was “<placebo”.
